Measured values from article PMC11277004, “Di- and Triselenoesters—Promising Drug Candidates for the Future Therapy of Triple-Negative Breast Cancer” (International Journal of Molecular Sciences, 2024).
Where two headings read alike, the source gives them in different places.

Key:
Type in all cases: cell-based, human
caspase 9 [1] = experiment: Caspase 9 activity (FAM-FLICA, flow cytometry), MDA-MB-231; conditions: 24 h
Method: (§1) The FAM-FLICA® Caspase Assay kits (all from ImmunoChemistry Technologies, Bloomington, MN, USA) and flow cytometer (BD FACSCanto II, BD Biosciences Systems, San Jose, CA, USA) were used to evaluate the activity of caspase 3/7, 8, and 9. MCF-7 and MDA-MB-231 cells were treated with selenoesters under the study (EDAG-1 and EDAG-8) and a reference agent (cisplatin) at two different concentrations (0.5 and 1 µM; treatment duration: 24 h). Following this, cells were collected, washed twice with cold PBS, and resuspended in an Apoptosis Wash Buffer to a final concentration of 5 × 10^5 cells/mL. In the next step, 290 µL each of cell suspension was taken and transferred into tubes. Then 10 µL of FLICA solution diluted immediately before use (1:5 v/v, using PBS) was added to the cells, mixed by pipetting, and incubated in the dark for 1 h at 37 °C. After this time, the cells were washed twice with 2 mL Apoptosis Wash Buffer, centrifuged, and resuspended in 300 µL of the buffer. Thus, prepared samples were immediately analyzed using a BD FACSCanto II flow cytometer (10,000 events) with the FACSDiva 6.0 software (both from BD Biosciences Systems, San Jose, CA, USA). The equipment calibration was carried out using the BD Cytometer Setup and Tracking Beads (BD Biosciences, San Diego, CA, USA).

Bax = Bax protein level by flow cytometry, MCF-7; conditions: 24 h
Method: (§2) For this purpose, Akt (PE), Bax (FITC), Bcl-2 (Alexa Fluor® 647), LC3A/B (Alexa Fluor® 488), and p53 (Alexa Fluor® 488) antibodies conjugated to different fluorochromes (all from Cell Signaling Technology, Beverly, MA, USA) were utilized. Each assay was performed according to the manufacturer's protocol available on their website. After incubation with the tested compounds, the cells were centrifuged, resuspended in 4% formaldehyde (100 μL/1 × 10^6 cells), and fixed for 15 min at room temperature. Afterward, to remove the formaldehyde, the cells were washed by centrifugation with excess PBS and the permeabilization step was triggered. For this purpose, ice-cold 90% methanol was added to the pre-chilled cell pellet, gently vortexed, and incubated for 1 h on ice. Later, the cells were washed by centrifugation with excess PBS again, resuspended in 100 μL of 1:100 diluted primary antibody (stain buffer was used for dilution), and incubated for 1 h at room temperature in the dark. After incubation, the cells were washed, resuspended in 300 μL PBS, and immediately tested with a flow cytometer (BD FACSCanto II, BD Biosciences Systems, San Jose, CA, USA; 10,000 events measured). The obtained results were analyzed using the FACSDiva 6.0 software (BD Biosciences Systems, San Jose, CA, USA). In the case of the p53 protein, the MRF values were obtained first during the flow cytometer readout utilizing FACSDiva software and later analyzed using FCS Express 7 (De Novo Software, Pasadena, CA, USA). The equipment calibration was performed using the BD Cytometer Setup and Tracking Beads (BD Biosciences, San Diego, CA, USA).

caspase 9 [2] = experiment: Caspase 9 activity (FAM-FLICA, flow cytometry), MCF-7; conditions: 24 h
Method: as §1

p53 = p53 protein expression by flow cytometry, MCF-7; conditions: 24 h
Method: as §2

Bcl-2 = Bcl-2 protein level by flow cytometry, MCF-7; conditions: 24 h
Method: as §2

[3] = test system: MDA-MB-231 triple-negative breast cancer cells; experiment: DNA biosynthesis assay ([3H]-thymidine incorporation), MDA-MB-231; conditions: read-out: IC50, DNA biosynthesis
Method: The study of the antiproliferative properties (intensity of [^3H]-thymidine incorporation into cell DNA) of the tested derivatives against tested cell lines (MCF-7, MDA-MB-231, MCF-10A) was performed after 24 h incubation with varied concentrations of the tested compounds in the medium (0.5–5 µM) in 6-well plates (baseline seeding density: 5 × 10^5 cells/well). After 24 h the medium was removed, the cells were washed with PBS (Corning, Kennebunk, ME, USA), and a fresh medium was added. After that, the cells were treated with 0.5 µCi of tritium-labeled thymidine (specific activity 7 Ci/mmol) by incubating them with this compound for 4 h under the same conditions as the cell culture. In the first step, the medium was removed, and the cell monolayer was washed twice with 1 mL of 0.05 M Tris-HCl buffer pH 7.4 containing 0.11 M NaCl. To denature proteins, the cells were washed twice with 1 mL of 5% trichloroacetic acid (TCA) solution. Finally, cell lysis was performed by adding 1 mL of 0.1 M sodium hydroxide (NaOH) solution containing 1% sodium dodecyl sulfate (SDS) to each well. After five minutes, the obtained cell lysates were transferred to scintillation vials with 2 mL of scintillation fluid added to them beforehand. Radioactivity was measured using the Scintillation Counter 1900 TR, TRI-CARB (Packard, Perkin Elmer, Inc., San Jose, CA, USA). The intensity of DNA biosynthesis in the analyzed cells was expressed in terms of dpm/well. The result of the radioactivity measurement in the control cells (without the addition of tested compounds) was taken as 100%, while the values of cells incubated with the tested compounds were presented as a percentage of the control value.

caspase 8 = experiment: Caspase 8 activity (FAM-FLICA, flow cytometry), MDA-MB-231; conditions: 24 h
Method: as §1

LC3A/B = LC3A/B protein level by flow cytometry, MDA-MB-231; conditions: 24 h
Method: as §2

[4] = test system: MCF-7 breast cancer cells; experiment: Mitochondrial membrane potential (JC-1, flow cytometry), MCF-7; conditions: 24 h
Method: The entire cell staining and cytometric analysis procedures were performed according to the instructions provided with the kit. In the first step, the cells (1 × 10^6 cells/sample) were washed and resuspended in 0.5 mL of buffer containing 10 µg/mL JC-1 dye. Incubation was carried out for 15 min at room temperature, protected from light. Afterward, the cells were washed twice with buffer, resuspended in 0.5 mL PBS, and immediately analyzed using a flow cytometer (BD FACSCanto II; 10,000 events measured) and the FACSDiva 6.0 software (BD Biosciences Systems, San Jose, CA, USA) to count the percentage of cells with reduced ΔΨm. The equipment was calibrated with the BD Cytometer Setup and Tracking Beads (BD Biosciences, San Diego, CA, USA).

Row | SMILES | Active caspase 9 ± SD (cells) (caspase 9 [1]; MDA-MB-231, 0.5 μM) [%] | Active caspase 9 ± SD (cells) (caspase 9 [1]; MDA-MB-231, 1 μM) [%] | Bax positive cells ± SD (Bax; MCF-7, 0.5 μM) [%] | Bax positive cells ± SD (Bax; MCF-7, 1 μM) [%] | Active caspase 9 ± SD (cells) (caspase 9 [2]; MCF-7, 0.5 μM) [%] | Active caspase 9 ± SD (cells) (caspase 9 [2]; MCF-7, 1 μM) [%] | p53 protein expression, MRF (p53; MCF-7, 0.5 μM) | p53 protein expression, MRF (p53; MCF-7, 1 μM) | Bcl-2 negative cells ± SD (Bcl-2; MCF-7, 0.5 μM) [%] | Bcl-2 negative cells ± SD (Bcl-2; MCF-7, 1 μM) [%] | IC50 ([3]; MDA-MB-231, 24 h incubation) [nM] | Active caspase 8 ± SD (cells) (caspase 8; MDA-MB-231, 0.5 μM) [%] | Active caspase 8 ± SD (cells) (caspase 8; MDA-MB-231, 1 μM) [%] | LC3A/B positive cells ± SD (LC3A/B; MDA-MB-231, 0.5 μM) [%] | LC3A/B positive cells ± SD (LC3A/B; MDA-MB-231, 1 μM) [%] | Decreased ΔΨm ± SD (cells) ([4]; MCF-7, 0.5 μM) [%] | Decreased ΔΨm ± SD (cells) ([4]; MCF-7, 1 μM) [%] | IC50 ([3]; Homo sapiens, MDA-MB-231, 24 h) [nM]
1 | N.N.[Cl][Pt][Cl] [Cisplatin, reference compound] | 2.7 ± 0.1 | 2.8 ± 0.3 | 2.9 ± 0.9 | 3.0 ± 0.8 | 5.9 ± 0.1 | 6.1 ± 0.6 | 375.8 ± 19.1 | 380.5 ± 20.4 | 2.7 ± 0.2 | 2.7 ± 0.1 | > 5000 | 7.3 ± 0.7 | 8.0 ± 1.6 | 2.4 ± 0.5 | 3.2 ± 0.3 | 6.3 ± 1.6 | 7.2 ± 0.4 | 
2 | CC(=O)C[Se]C(=O)c1ccc(C(=O)[Se]CC(C)=O)cc1 [EDAG-1, Se,Se-bis(2-oxopropyl) benzene-1,4-bis(carboselenoate)] | 5.2 ± 0.7 | 8.5 ± 0.6 | 6.1 ± 0.9 | 8.6 ± 1.0 | 7.1 ± 0.7 | 12.8 ± 1.4 | 404.8 ± 23.7 | 407.8 ± 22.0 | 13.9 ± 0.9 | 38.4 ± 4.0 |  | 11.5 ± 0.9 | 14.4 ± 1.2 | 10.5 ± 1.4 | 15.4 ± 1.3 | 10.0 ± 0.4 | 15.3 ± 1.1 | 700 ± 150
3 | CC(=O)C[Se]C(=O)c1cc(C(=O)[Se]CC(C)=O)cc(C(=O)[Se]CC(C)=O)c1 [EDAG-8, Se,Se,Se-tris-(2-oxopropyl) benzene-1,3,5-tris-(carboxyselenoate)] | 8.4 ± 0.9 | 32.5 ± 3.8 | 18.0 ± 1.5 | 32.1 ± 3.1 | 15.5 ± 0.5 | 22.8 ± 2.4 | 421.3 ± 24.5 | 450.8 ± 28.7 | 45.2 ± 9.3 | 63.6 ± 3.7 |  | 15.0 ± 2.0 | 26.6 ± 3.6 | 14.8 ± 0.5 | 17.0 ± 1.6 | 18.7 ± 0.9 | 54.2 ± 4.6 | 470 ± 80
